Experimental data from US10793563B2, “GCN2 inhibitors and uses thereof” (Merck Patent GmbH, priority 2018, dated 2020).
Like-named read-outs stand apart in the source and are kept apart here.

Tests used:
[1] = biological target: intracellular GCN2 (phosphorylation of the GCN2 substrate eIF2α) (Homo sapiens (Human), UniProt Q9P2K8); test: GCN2 Cellular Inhibition Assay (AlphaScreen SureFire P-eIF2α Ser51, borrelidin-treated U2OS cells); format: cell-based; details: 10 μM borrelidin, 1 h
Description: Compounds can be screened for their ability to inhibit intracellular GCN2 using an AlphaScreen assay (Perkin Elmer) to detect phosphorylation of the GCN2 substrate eIF2α in borrelidin-treated cells. U2OS cells are plated at 5,000 cells per well in 384-well white polystyrene plates (Corning 3570) in McCoy's 5A media (GIBCO 26600-023) supplemented with 10% foetal bovine serum (SAFC 12103C), Penicillin/Streptomycin solution diluted 1:100 (Sigma P0781), and 2 mM L-glutamine (Sigma G7513), and allowed to adhere overnight at 37° C. in 5% CO2. Compounds are then added to the cell media from a final concentration of 40 μM in 4-fold serial dilutions. Borrelidin (FluoroChem M01440) is immediately added to the wells to a final concentration of 10 μM and the cells are incubated for 1 h at 37° C. in 5% CO2. After 1 h of treatment with borrelidin, the media is removed, and the cells are lysed with lysis buffer (TGR BioSceinces TGRLB) at ambient temperature.
An AlphaScreen SureFire P-eIF2α (Ser51) assay kit (Perkin Elmer TGREIF2S) was used to measure levels of eIF2α phosphorylated on Serine 51. Anti-phosphorylated eIF2α Ser51 antibody-linked acceptor beads (TGR BioScience 6760617) are added to the cell homogenate (diluted 1:250 into a mixture of activation (TGR BioScience TGRAB) and reaction buffer (TGR BioScience TGREIF2S) prepared immediately before use). The plate is then incubated for 2 h at ambient temperature in the dark. Anti-eIF2α antibody-linked donor beads (TGR BioScience 6760617) were then added (diluted 1:100 in dilution buffer (TGR BioScience TGRDB) prepared immediately before use). The plate is then incubated overnight at ambient temperature in the dark.
Plates are analyzed on an Alpha Technology-compatible PHERAstar FS plate reader (BMG Labtech Version 1.14) to quantify phosphorylated eIF2α Ser51 levels. The percentage inhibition of phosphorylated eIF2α is calculated by comparison to control wells stimulated with borrelidin alone.

GCN2 kinase = GCN2 kinase (Homo sapiens (Human), UniProt Q9P2K8); test: GCN2 Enzyme Inhibition Assay (Transcreener ADP2 fluorescence polarization); format: biochemical; details: 280 μM ATP, 200 μM (RS)7 peptide, 4 nM GCN2, 25° C.; for Ki: Ki(app)
Summary of the method: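 Transcreener ADP2 fluorescence polarization detection of ADP from 4 nM GCN2 with (RS)7 substrate in 25 mM Tris-HCl pH 7.5, 50 mM NaCl, 10 mM MgCl2, 1 mM DTT. Compound pre-incubated with enzyme 10 min at 25 °C; reaction started by ATP, run 1 h at 25 °C. IC50 and Ki(app) by tight-binding fit.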

[2] = phosphorylated eIF2α Ser51, read-out: GCN2 Biomarker (IC50)

intracellular GCN2 (phosphorylation of the GCN2 substrate eIF2α), sequence (Q9P2K8 whole entry): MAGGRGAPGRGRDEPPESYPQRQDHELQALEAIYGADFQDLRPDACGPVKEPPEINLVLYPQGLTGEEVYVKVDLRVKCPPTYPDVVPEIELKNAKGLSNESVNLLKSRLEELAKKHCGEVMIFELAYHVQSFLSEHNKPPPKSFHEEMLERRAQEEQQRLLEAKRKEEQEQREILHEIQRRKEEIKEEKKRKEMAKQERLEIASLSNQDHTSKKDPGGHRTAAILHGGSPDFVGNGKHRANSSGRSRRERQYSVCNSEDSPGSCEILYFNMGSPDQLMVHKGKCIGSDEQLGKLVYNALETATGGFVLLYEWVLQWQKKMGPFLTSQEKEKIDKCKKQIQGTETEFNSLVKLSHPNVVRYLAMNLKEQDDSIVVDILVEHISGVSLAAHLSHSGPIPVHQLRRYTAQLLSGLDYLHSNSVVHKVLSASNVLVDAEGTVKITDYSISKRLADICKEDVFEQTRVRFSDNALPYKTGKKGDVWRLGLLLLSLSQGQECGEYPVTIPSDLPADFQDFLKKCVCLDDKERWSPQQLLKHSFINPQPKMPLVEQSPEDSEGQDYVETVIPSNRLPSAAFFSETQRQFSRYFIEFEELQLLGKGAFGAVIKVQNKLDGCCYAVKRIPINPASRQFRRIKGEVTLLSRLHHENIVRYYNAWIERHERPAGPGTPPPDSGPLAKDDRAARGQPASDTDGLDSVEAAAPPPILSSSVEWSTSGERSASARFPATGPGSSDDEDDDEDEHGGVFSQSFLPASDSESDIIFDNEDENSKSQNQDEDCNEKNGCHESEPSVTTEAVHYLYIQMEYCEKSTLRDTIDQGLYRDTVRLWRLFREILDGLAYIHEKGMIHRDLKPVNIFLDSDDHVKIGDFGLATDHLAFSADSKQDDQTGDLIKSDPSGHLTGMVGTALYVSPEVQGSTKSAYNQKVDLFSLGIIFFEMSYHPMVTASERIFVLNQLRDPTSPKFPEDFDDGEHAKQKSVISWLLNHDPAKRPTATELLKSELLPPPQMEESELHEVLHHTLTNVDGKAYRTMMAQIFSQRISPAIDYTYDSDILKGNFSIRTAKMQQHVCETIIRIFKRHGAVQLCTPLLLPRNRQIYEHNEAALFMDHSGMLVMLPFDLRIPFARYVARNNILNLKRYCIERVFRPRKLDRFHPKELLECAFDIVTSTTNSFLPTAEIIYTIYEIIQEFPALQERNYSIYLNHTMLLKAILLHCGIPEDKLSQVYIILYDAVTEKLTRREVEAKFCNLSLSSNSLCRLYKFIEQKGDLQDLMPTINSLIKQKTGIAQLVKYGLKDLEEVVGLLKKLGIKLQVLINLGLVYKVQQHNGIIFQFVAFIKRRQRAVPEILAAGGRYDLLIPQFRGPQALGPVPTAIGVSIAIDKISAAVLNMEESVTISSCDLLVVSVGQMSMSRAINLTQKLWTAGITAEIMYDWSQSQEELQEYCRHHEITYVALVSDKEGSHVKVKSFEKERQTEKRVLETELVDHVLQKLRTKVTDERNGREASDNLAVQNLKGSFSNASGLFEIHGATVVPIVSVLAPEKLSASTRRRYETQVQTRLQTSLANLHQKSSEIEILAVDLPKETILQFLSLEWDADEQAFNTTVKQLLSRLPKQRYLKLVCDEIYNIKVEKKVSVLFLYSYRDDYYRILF
GCN2 kinase, sequence (Q9P2K8 whole entry): as above

Row | Ki (GCN2 kinase) | IC50 [1, 2] | IC50 (GCN2 kinase) | Structure (SMILES) | IC50 ([1]; GCN2 Biomarker (IC50), phosphorylated eIF2α Ser51)
1 | 10 to 100 nM | > 5000 nM | – | CC1CN(c2nccc(-c3cnc4ccc(C(F)(F)F)cn34)n2)C(C)C(c2cn[nH]c2)N1 (single isomer, unassigned) [I-33, 3-[2-[2,5-Dimethyl-3-(1H-pyrazol-4-yl)piperazin-1-yl]pyrimidin-4-yl]-6-(trifluoromethyl)imidazo[1,2-a]pyridine] | –
2 | < 10 nM | < 500 nM | – | CC1CN(c2nccc(-c3cnc4ccc(C(F)(F)F)cn34)n2)C(C)C(c2cn[nH]c2)N1 (single isomer, unassigned) [I-34, 3-[2-[2,5-dimethyl-3-(1H-pyrazol-4-yl)piperazin-1-yl]pyrimidin-4-yl]-6-(trifluoromethyl)imidazo[1,2-a]pyridine] | –
3 | 10 to 100 nM | 500 to 5000 nM | – | C[C@H]1CN(c2ccnc(-c3cnc4ccc(C(F)(F)F)cn34)n2)C[C@@H](CNS(C)(=O)=O)C1(F)F (stereo in doubt) [I-8, N-[[-4,4-Difluoro-5-methyl-1-[2-[6-(trifluoromethyl)imidazo[1,2-a]pyridin-3-yl]pyrimidin-4-yl]-3-piperidyl]methyl]methanesulfonamide] | –
4 | 10 to 100 nM | 500 to 5000 nM | – | CS(=N)(=O)C[C@H]1CCCN(c2ccnc(-c3cnc4ccc(Cl)cn34)n2)C1 (stereo in doubt) [I-21, 6-Chloro-3-(4-(3-((methylsulfonimidoyl)methyl)piperidin-1-yl)pyrimidin-2-yl)imidazo[1,2-a]pyridine] | –
5 | < 10 nM | < 500 nM | – | C[C@H]1CN(c2ccnc(-c3cnc4ccc(C(F)(F)F)cn34)n2)[C@@H](C)[C@@H](c2cn[nH]c2)N1 (stereo in doubt) [I-37, 3-[4-[2,5-Dimethyl-3-(1H-pyrazol-4-yl)piperazin-1-yl]pyrimidin-2-yl]-6-(trifluoromethyl)imidazo[1,2-a]pyridine] | –
6 | < 10 nM | 500 to 5000 nM | – | C[C@H]1CN(c2nccc(-c3cnc4ccc(C(F)F)cn34)n2)C[C@@H](CNS(C)(=O)=O)C1(F)F (stereo in doubt) [I-41, N-[[-1-[4-[6-(Difluoromethyl)imidazo[1,2-a]pyridin-3-yl]pyrimidin-2-yl]-4,4-difluoro-5-methyl-3-piperidyl]methyl]methanesulfonamide] | –
7 | < 10 nM | < 500 nM | – | Cc1noc([C@H]2CN(c3ccnc(-c4cnc5ccc(C(F)(F)F)cn45)n3)C[C@@H](C)O2)n1 (stereo in doubt) [I-90, 2-methyl-6-(3-methyl-1,2,4-oxadiazol-5-yl)-4-{2-[6-(trifluoromethyl)imidazo[1,2-a]pyridin-3-yl]pyrimidin-4-yl}morpholine] | –
8 | – | < 500 nM | 10 to 100 nM | C[C@H]1CN(c2nccc(-c3cnc4ccc(C(F)(F)F)cn34)n2)CC(c2cc[nH]n2)O1 (stereo in doubt) [I-138, (2S,6R)-2-methyl-6-(1H-pyrazol-3-yl)-4-(4-(6-(trifluoromethyl)imidazo[1,2-a]pyridin-3-yl)pyrimidin-2-yl)morpholine] | –
9 | – | < 500 nM | 10 to 100 nM | C[C@H]1C[C@@H](N=S(C)(C)=O)CN(c2nccc(-c3cnc4ccc(Cl)cn34)n2)C1 (stereo in doubt) [I-159, (((3R,5S)-1-(4-(6-chloroimidazo[1,2-a]pyridin-3-yl)pyrimidin-2-yl)-5-methylpiperidin-3-yl)imino)dimethyl-λ6-sulfanone] | –
10 | – | < 500 nM | < 10 nM | C[C@H]1CN(c2ccnc(-c3cnc4ccc(Cl)cn34)n2)C[C@H](c2cn[nH]c2F)O1 (stereo in doubt) [I-175, (2S,6S)-4-(2-(6-chloroimidazo[1,2-a]pyridin-3-yl)pyrimidin-4-yl)-2-(5-fluoro-1H-pyrazol-4-yl)-6-methylmorpholine] | –
11 | – | 500 to 5000 nM | 10 to 100 nM | Cc1[nH]ncc1[C@H]1CN(c2nccc(-c3cnc4ccc(Cl)cn34)n2)C[C@H](C)O1 (stereo in doubt) [I-181, (2S,6S)-4-(4-(6-chloroimidazo[1,2-a]pyridin-3-yl)pyrimidin-2-yl)-2-methyl-6-(5-methyl-1H-pyrazol-4-yl)morpholine] | –
12 | – | < 500 nM | 10 to 100 nM | Cc1[nH]ncc1[C@@H]1CN(c2nccc(-c3cnc4ccc(Cl)cn34)n2)C[C@@H](C)O1 (stereo in doubt) [I-182, (2R,6R)-4-(4-(6-chloroimidazo[1,2-a]pyridin-3-yl)pyrimidin-2-yl)-2-methyl-6-(5-methyl-1H-pyrazol-4-yl)morpholine] | –
13 | – | < 500 nM | 10 to 100 nM | Cc1cnc(N2C[C@H](C)C[C@@H](c3cn[nH]c3)C2)nc1-c1cnc2ccc(Cl)cn12 (stereo in doubt) [I-184, 6-chloro-3-(5-methyl-2-((3R,5S)-3-methyl-5-(1H-pyrazol-4-yl)piperidin-1-yl)pyrimidin-4-yl)imidazo[1,2-a]pyridine] | –
14 | – | < 500 nM | 10 to 100 nM | Cc1cnc(N2C[C@@H](C)C[C@H](c3cn[nH]c3)C2)nc1-c1cnc2ccc(Cl)cn12 (stereo in doubt) [I-197, 6-chloro-3-(5-methyl-2-((3 S, 5R)-3-methyl-5-(1H-pyrazol-4-yl)piperidin-1-yl)pyrimidin-4-yl)imidazo[1,2-a]pyridine] | –
15 | – | 500 to 5000 nM | < 10 nM | C[C@H]1C[C@H](c2cn[nH]c2)CN(c2nccc(-c3cnc4ccc(Cl)cn34)n2)C1 (stereo in doubt) [I-198, 6-chloro-3-(2-((3S,5R)-3-methyl-5-(1H-pyrazol-4-yl)piperidin-1-yl)pyrimidin-4-yl)imidazo[1,2-a]pyridine] | –
16 | – | 500 to 5000 nM | 100 to 1000 nM | C[C@@H]1CCN(c2ccnc(-c3cnc4ccc(C(F)(F)F)cn34)n2)CC1F (stereo in doubt) [I-240, 3-(4-((3R,4R)-3-fluoro-4-methylpiperidin-1-yl)pyrimidin-2-yl)-6-(trifluoromethyl)imidazo[1,2-a]pyridine] | –
17 | – | 500 to 5000 nM | 10 to 100 nM | C[C@@H](NS(C)(=O)=O)[C@@H]1CN(c2ccnc(-c3cnc4ccc(C(F)(F)F)cn34)n2)CCO1 (stereo in doubt) [I-404, N—((R)-1-((S)-4-(2-(6-(trifluoromethyl)imidazo[1,2-a]pyridin-3-yl)pyrimidin-4-yl)morpholin-2-yl)ethyl)methanesulfonamide] | –
18 | – | < 500 nM | – | FC(F)(F)c1ccc2ncc(-c3nccc(N4CCN(C[C@@H]5CC56CC6)[C@@H](c5cn[nH]c5)C4)n3)n2c1 [I-554, 3-(4-((S)-3-(1H-pyrazol-4-yl)-4-(((R)-spiro[2.2]pentan-1-yl)methyl)piperazin-1-yl)pyrimidin-2-yl)-6-(trifluoromethyl)imidazo[1,2-a]pyridine] | –
19 | – | 500 to 5000 nM | – | O=S1(=O)CC2(CC(N3CCN(c4ccnc(-c5cnc6ccc(C(F)(F)F)cn56)n4)C[C@@H]3c3cn[nH]c3)C2)C1 [I-556, (S)-6-(2-(1H-pyrazol-4-yl)-4-(2-(6-(trifluoromethyl)imidazo[1,2-a]pyridin-3-yl)pyrimidin-4-yl)piperazin-1-yl)-2-thiaspiro[3.3]heptane 2,2-dioxide] | –

Row | Structure (SMILES) | Ki (GCN2 kinase) | IC50 [1, 2] | IC50 (GCN2 kinase) | IC50 ([1]; GCN2 Biomarker (IC50), phosphorylated eIF2α Ser51)
20 | Cc1noc([C@H]2CN(c3ccnc(-c4cnc5cc(F)c(Cl)cn45)n3)C[C@@H](C)O2)n1 (relative stereo) [I-56, 6-Chloro-7-fluoro-3-{4-[cis-2-methyl-6-(3-methyl-[1,2,4]oxadiazol-5-yl)-morpholin-4-yl]-pyrimidin-2-yl}-imidazo[1,2-a]pyridine] | 10 to 100 nM | – | – | 500 to 5000 nM
